Reference: patent EP0791056B1, “LIPID-CLEAVAGE ENZYME COMPLEX” (priority 1994, dated 1996)

Experiments:
[1] = system: stimulierten humanen PBL; test: Intracellular concentrations of AZT and AZT nucleotides (radioimmunoassay) in stimulated human PBL; conditions: for maximale intrazelluläre Konzentrationen an freiem AZT: without alkaline phosphatase; for maximale Konzentrationen an AZT und phosphorylierten AZT-Nukleotiden: with alkaline phosphatase
Source text: Zur Bestimmung der intrazellulären Konzentrationen an AZT und/oder AZT-Nukleotiden nach Inkubation mit AZT-DMDOPE bzw. AZT wurden humane PBL aus "Buffy coat" isoliert.
Hierfür wurde "Buffy-coat" von gesunden Spendern gemischt und durch Zentrifugation in einem isotonischen Medium mit einer Dichte von 1.077 g/ml fraktioniert. Da mononukleare Blutzellen (Monozyten und Lymphozyten) eine geringere Dichte als Erythrozyten und polymorphkernige Granulozyten haben, bilden sie einen Ring an der Grenze zwischen Trennmedium und Probe und können mit Hilfe einer Pipette abgenommen werden. Erythrozyten und polymorphkernige Granulozyten sedimentieren aufgrund ihrer höheren Dichte durch das Medium und lassen sich somit von PBL separieren. Zur Stimulation der Zellproliferation wurde Phytohämaglutinin A (Mukoprotein) (PHA-M), der mitogene Lektinextrakt aus der roten Feuerbohne (Phaseolus vulgaris), eingesetzt. Phytohämagglutinin ist eine Familie von 5 Isolektinen, die als Tetramere vorliegen. Die Untereinheiten bestehen aus einem lymphozytenreaktiven Typ-L und einem erythrozytenreaktiven Typ-E. Typ-L hat eine hohe Affinität zu Lymphozytenoberflächenrezeptoren und ist somit verantwortlich für die mitogenen Eigenschaften. Die Stimulation der Lymphozyten wurde in KPMI 1640 Komplettmedium III für 72 h bei 37 °C und 5 % CO2 durchgeführt. Nach Beendigung der Stimulation wurden zur Erhöhung der Zellzahl die Zellen für weitere 24 h in RPMI 1640 Komplettmedium IV kultiviert.
Zur Bestimmung der intrazellulären Konzentrationen an AZT und AZT-Nukleotiden wurden die Zellen in RPMI 1640 Komplettmedium II mit einer Dichte von 1 x 10^6 Zellen/ml in Gewebekulturflaschen (50 ml/25 cm^2) überführt, und in Anwesenheit von 0.03 bzw. 0.3 µg AZT/ml (Charge 15) und 1 bzw. 10 µg AZT-DMDOPE/ml für 1 - 24 h inkubiert.
Die Kulturen wurden anschließend für 1, 3, 6 und 24 h bei 37 °C und 5 % CO2 inkubiert. AZT und seine Nukleotide wurden anschließend mit 60 % Methanol extrahiert. Die extrahierten Nukleotide wurden mit alkalischer Phosphatase quantitativ zu AZT dephosphoryliert, da nur AZT, nicht jedoch die entsprechenden Nukleotide mit Hilfe eines Radioimmuno-Assays detektiert werden kann.
Die Konzentrationen an intrazellulärem AZT, die mit Hilfe des Radioimmuno-Assays bestimmt wurden, setzten sich dementsprechend aus der des AZT und den der AZT-Nukleotide zusammen. Eine separate Quantifizierung der Konzentrationen an AZT-MP, AZT-DP und AZT-TP wurde nicht durchgeführt.
Diese Experimente wurden an stimulierten humanen PBL durchgeführt.
Hierfür wurden Zellsuspensionen mit einer Dichte von 10^6 Zellen/ml mit 1 bzw. 10 µg AZT-DMDOPE/ml für 6 bzw. 24 h bei 37 °C und 5 % CO2 inkubiert.
Zur quantitativen Bestimmung von AZT wurde ein kommerzieller ^125J-AZT RIA Test-Kit verwendet. Puffer und Lösungen wurden gemäß den Angaben des Herstellers angesetzt und im Test-Kit eingesetzt. Die Reaktionsansätze wurden nach untenstehendem Schema (Tab. ) pipettiert, vorsichtig gemischt und für 2 h bei Raumtemperatur inkubiert. Anschließend wurden zur Präzipitation des Komplexes aus ^125J-AZT und des AZT-Antikörpers (aus Kaninchen) 500 µl des Ziege-Anti-Kaninchen-Antikörpers hinzugefügt. Die Ansätze wurden gemischt und erneut bei Raumtemperatur für 30 min inkubiert.

[2] = system: CEM-SS-Zellen; test: Enzymatic cleavage of [14C]-AZT-DMDOPE by cell homogenates, TLC of metabolites; format: in vitro ADME; conditions: Zellhomogenate von CEM-SS-Zellen
Description: Die Spaltung von AZT-DMDOPE wurde mit Hilfe eines Enzym-Assays mit [^14C]-AZT-DMDOPE und AZT-DMDOPE als Substrat untersucht. Als Enzymquelle wurden zunächst Zellhomogenate von CEM-SS-Zellen und humanen PBL verwendet. Tab.
Zur Herstellung der Zellhomogenate wurden Zellsuspensionen mit einer Dichte von 5 x10^7 Zellen/ml 50 mM Tris (pH 7.4) im Glashomogenisator mechanisch aufgeschlossen. Der Zellaufschluß wurde hierbei im Umkehr-Phasenkontrast-Mikroskop optisch kontrolliert. Tab.
Zunächst wurde 1 ml dieses Zellhomogenales in dem Enzym-Assay ohne vorherige Bestimmung der Proteinkonzentration eingesetzt.
Zur Gewährleistung einer Substratsättigung wurden weitere 50 nmol der nichtradioaktiv markierten Verbindung hinzugefügt. [^14C]-AZT-DMDOPE trägt die radioaktive Markierung im Thioetherlipidteil und erlaubt somit eine eindeutige Identifikation der potentiellen Metabolits [^14-C]DMDOP.
Die Ansätze wurden für 1, 3, 6 und 24 h im Wasserbad bei 37 °C inkubiert. Als Vergleich wurde ein Ansatz ohne Zugabe von Zellhomogenat mitgeführt. Anschließend wurden die Spaltprodukte mit Diethylether:2-Propanol (9:1, v/v) extrahiert und dünnschichtchromatographisch im IBA- und IBAE-System analysiert (Abb. 18). Nach Trennung der Substanzen wurde zur Detektion der radioaktiv markierten Substanzen die DC-Platte 15 min im Radio-DC-Analysator gemessen. […]

[3] = 10 µg AZT-DMDOPE/ml, after 24 h

CCCCCCCCCCCCSCC(COP(=O)(O)OC[C@H]1O[C@@H](n2cc(C)c(=O)[nH]c2=O)C[C@@H]1N=[N+]=[N-])OCCCCCCCCCC (some centres unmarked) [AZT-DMDOPE, (3'-Desoxy-3'-azidothymidin)-5'-phosphorsäure-(3-dodecyl-mercapto-2-decyloxy)-propylester]
maximale intrazelluläre Konzentrationen an freiem AZT ([1]; 1 µg AZT-DMDOPE/ml, after 6 h): 0.03 ng/10^6 Zellen | maximale Konzentrationen an AZT und phosphorylierten AZT-Nukleotiden ([1]; 1 µg AZT-DMDOPE/ml, after 24 h): 3.85 ng/10^6 Zellen | maximale Konzentrationen an AZT und phosphorylierten AZT-Nukleotiden [1, 3]: 6.41 ng/10^6 Zellen | maximale intrazelluläre Konzentrationen an freiem AZT [1, 3]: 0.15 ng/10^6 Zellen | intrazellulärer Spiegel an AZT und seiner Nukleotiden, Verlauf ([1]; 1 bzw. 10 µg AZT-DMDOPE/ml, whole incubation time 1 - 24 h): stetig steigender | intrazelluläre Spiegel im Vergleich zu AZT ([1]; after 24 h incubation, equipotent concentrations): identisch | intrazelluläre Konzentrationen an AZT und AZT-Nukleotiden im Vergleich zur äquipotenten Konzentration an AZT ([1]; incubation time 18 - 48 h, further experiments): größer | Metabolisierung von AZT-DMDOPE [2]: zu DMDOP und AZT-MP metabolisiert
